Each compound was assayed against human, KCNT1 (Homo sapiens (Human), UniProt Q5JUK3) (assay: FLIPR Tl/K Flux Assay). Details: HEK293 cells stably expressing human KCNT1; Tl+ flux stimulated with EC80 of agonist Loxapine.
Type: cell-based
Summary of the method: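 HEK293 cells stably expressing human KCNT1 were loaded with FLIPR potassium dye in HEPES/HBSS pH 7.4 with 5 mM probenecid, 1 h at 25 °C, then given test compound for 30 min at 25 °C. Tl+ flux was triggered with chloride-free buffer containing Tl+ and EC80 loxapine and read 160 s. IC50 came from Hill fits of % inhibition.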

Chain of human, KCNT1 (Q5JUK3 whole entry): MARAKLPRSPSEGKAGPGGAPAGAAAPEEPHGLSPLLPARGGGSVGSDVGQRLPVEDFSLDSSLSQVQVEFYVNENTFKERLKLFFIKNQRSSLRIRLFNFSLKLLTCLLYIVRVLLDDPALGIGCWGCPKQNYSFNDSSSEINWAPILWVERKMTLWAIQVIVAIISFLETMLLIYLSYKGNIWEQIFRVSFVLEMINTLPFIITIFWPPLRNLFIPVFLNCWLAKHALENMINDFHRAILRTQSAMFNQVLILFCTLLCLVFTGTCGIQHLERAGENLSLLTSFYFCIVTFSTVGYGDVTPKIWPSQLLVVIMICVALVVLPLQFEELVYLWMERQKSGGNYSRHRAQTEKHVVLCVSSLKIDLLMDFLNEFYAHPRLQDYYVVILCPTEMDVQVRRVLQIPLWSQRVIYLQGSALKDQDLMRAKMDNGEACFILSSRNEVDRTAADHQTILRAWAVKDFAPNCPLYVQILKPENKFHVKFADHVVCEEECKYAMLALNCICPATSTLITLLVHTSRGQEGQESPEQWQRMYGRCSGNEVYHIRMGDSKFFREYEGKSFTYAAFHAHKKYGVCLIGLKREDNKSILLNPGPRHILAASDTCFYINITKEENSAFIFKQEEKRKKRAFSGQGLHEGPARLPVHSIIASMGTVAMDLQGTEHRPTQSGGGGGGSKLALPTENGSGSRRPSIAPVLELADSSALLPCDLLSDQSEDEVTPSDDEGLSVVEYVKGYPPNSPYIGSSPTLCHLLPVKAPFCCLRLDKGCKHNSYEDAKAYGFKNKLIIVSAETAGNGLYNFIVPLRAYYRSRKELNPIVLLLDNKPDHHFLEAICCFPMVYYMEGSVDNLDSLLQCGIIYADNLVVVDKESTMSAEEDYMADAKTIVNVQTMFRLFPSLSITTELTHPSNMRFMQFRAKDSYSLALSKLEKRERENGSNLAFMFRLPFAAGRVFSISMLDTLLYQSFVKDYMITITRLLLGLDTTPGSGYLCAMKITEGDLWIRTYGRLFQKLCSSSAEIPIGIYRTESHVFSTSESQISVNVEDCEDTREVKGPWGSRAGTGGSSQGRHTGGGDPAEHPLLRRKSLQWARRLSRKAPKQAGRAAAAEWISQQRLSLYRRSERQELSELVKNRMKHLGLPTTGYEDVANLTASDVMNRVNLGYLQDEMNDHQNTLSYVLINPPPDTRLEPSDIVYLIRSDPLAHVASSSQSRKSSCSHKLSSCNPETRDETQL

IC50, < 0.25 µM:
O=C(N[C@H]1CCn2nc(-c3ccnc(C(F)(F)F)c3)cc21)c1ccn2nccc2c1 [Compound I-550a, (S)-N-(2-(2-(Trifluoromethyl)pyridin-4-yl)-5,6-dihydro-4H-pyrrolo[1,2-b]pyrazol-4-yl)pyrazolo[1,5-a]pyridine-5-carboxamide]
Cn1nc(C(F)(F)F)nc1C(=O)N[C@H]1CCCn2nc(-c3ccnc(C(C)(F)F)c3)cc21 [Compound I-551a, (S)-N-(2-(2-(1,1-Difluoroethyl)pyridin-4-yl)-4,5,6,7-tetrahydropyrazolo[1,5-a]pyridin-4-yl)-1-methyl-3-(trifluoromethyl)-1H-1,2,4-triazole-5-carboxamide]
O=C(N[C@H]1CCn2nc(-c3cc(C(F)(F)F)ncc3F)cc21)C12CC(F)(C1)C2 [Compound I-552a, (S)-3-Fluoro-N-(2-(5-fluoro-2-(trifluoromethyl)pyridin-4-yl)-5,6-dihydro-4H-pyrrolo[1,2-b]pyrazol-4-yl)bicyclo[1.1.1]pentane-1-carboxamide]
O=C(N[C@H]1CCc2nn(-c3ccnc(C(F)(F)F)c3)cc21)C12CC(C(F)(F)F)(C1)C2 [Compound I-553a, (S)-3-(Trifluoromethyl)-N-(2-(2-(trifluoromethyl)pyridin-4-yl)-2,4,5,6-tetrahydrocyclopenta[c]pyrazol-4-yl)bicyclo[1.1.1]pentane-1-carboxamide]
O=C(N[C@H]1CCCc2oc(-c3cc(C(F)(F)F)ncc3F)nc21)c1cccc(C(F)(F)F)c1 [Compound I-554a, (S)—N-(2-(5-Fluoro-2-(trifluoromethyl)pyridin-4-yl)-4,5,6,7-tetrahydrobenzo[d]oxazol-4-yl)-3-(trifluoromethyl)benzamide]
Cc1nn(C(F)(F)F)cc1C(=O)N[C@H]1CCn2nc(-c3ccnc(C4CC4)c3)cc21 [Compound I-555a, (S)-N-(2-(2-Cyclopropylpyridin-4-yl)-5,6-dihydro-4H-pyrrolo[1,2-b]pyrazol-4-yl)-3-methyl-1-(trifluoromethyl)-1H-pyrazole-4-carboxamide]
Cc1nn(C(F)(F)F)cc1C(=O)N[C@H]1CCn2nc(-c3ccnc(C(F)(F)F)c3)cc21 [Compound I-556a]
Cc1nn(C(F)(F)F)cc1C(=O)N[C@H]1CCCc2oc(-c3ccnc(C(F)(F)F)c3)nc21 [Compound I-557a, (S)-3-Methyl-1-(trifluoromethyl)-N-(2-(2-(trifluoromethyl)pyridin-4-yl)-4,5,6,7-tetrahydrobenzo[d]oxazol-4-yl)-1H-pyrazole-4-carboxamide]
O=C(N[C@H]1CCn2nc(-c3cc(C(F)(F)F)ncc3F)cc21)C12CC(CC(F)F)(C1)C2 [Compound I-558a, (S)-3-(2,2-Difluoroethyl)-N-(2-(5-fluoro-2-(trifluoromethyl)pyridin-4-yl)-5,6-dihydro-4H-pyrrolo[1,2-b]pyrazol-4-yl)bicyclo[1.1.1]pentane-1-carboxamide]
O=C(N[C@H]1CCn2nc(-c3cc(C4CC4)ncc3F)cc21)C12CC(C(F)(F)F)(C1)C2 [Compound I-559a, (S)-N-(2-(2-Cyclopropyl-5-fluoropyridin-4-yl)-5,6-dihydro-4H-pyrrolo[1,2-b]pyrazol-4-yl)-3-(trifluoromethyl)bicyclo[1.1.1]pentane-1-carboxamide]
COc1cc(C(=O)N[C@H]2CCn3nc(-c4cc(OC)ncc4F)cc32)ccn1 [Compound I-560a, (S)-N-(2-(5-Fluoro-2-methoxypyridin-4-yl)-5,6-dihydro-4H-pyrrolo[1,2-b]pyrazol-4-yl)-2-methoxyisonicotinamide]
COc1cc(F)cc(C(=O)N[C@H]2CCc3nn(-c4ccnc(C(F)(F)F)c4)cc32)c1 [Compound I-561a, (S)-3-Fluoro-5-methoxy-N-(2-(2-(trifluoromethyl)pyridin-4-yl)-2,4,5,6-tetrahydrocyclopenta[c]pyrazol-4-yl)benzamide]
O=C(N[C@H]1CCc2nn(-c3ccnc(C(F)(F)F)c3)cc21)c1cc(F)cc(C2CC2)c1 [Compound I-562a, (S)-3-Cyclopropyl-5-fluoro-N-(2-(2-(trifluoromethyl)pyridin-4-yl)-2,4,5,6-tetrahydrocyclopenta[c]pyrazol-4-yl)benzamide]
CC(C)(O)c1cc(F)cc(C(=O)N[C@H]2CCc3nn(-c4ccnc(C(F)(F)F)c4)cc32)c1 [Compound I-563a, (S)-3-Fluoro-5-(2-hydroxypropan-2-yl)-N-(2-(2-(trifluoromethyl)pyridin-4-yl)-2,4,5,6-tetrahydrocyclopenta[c]pyrazol-4-yl)benzamide]
O=C(N[C@H]1CCc2nn(-c3ccnc(C(F)(F)F)c3)cc21)c1cnc(C(F)(F)F)cn1 [Compound I-564a, (S)-5-(Trifluoromethyl)-N-(2-(2-(trifluoromethyl)pyridin-4-yl)-2,4,5,6-tetrahydrocyclopenta[c]pyrazol-4-yl)pyrazine-2-carboxamide]
O=C(N[C@H]1CCc2nn(-c3ccnc(C(F)(F)F)c3)cc21)c1cncc(C(F)(F)F)n1 [Compound I-565a, (S)-6-(Trifluoromethyl)-N-(2-(2-(trifluoromethyl)pyridin-4-yl)-2,4,5,6-tetrahydrocyclopenta[c]pyrazol-4-yl)pyrazine-2-carboxamide]
O=C(N[C@H]1CCc2nn(-c3ccnc(C(F)(F)F)c3)cc21)c1cnn(C(F)(F)F)c1 [Compound I-566a, (S)-1-(Trifluoromethyl)-N-(2-(2-(trifluoromethyl)pyridin-4-yl)-2,4,5,6-tetrahydrocyclopenta[c]pyrazol-4-yl)-1H-pyrazole-4-carboxamide]
COc1cc(F)cc(C(=O)N[C@H]2CCn3nc(-c4ccnc(C(F)(F)F)c4)cc32)c1 [Compound I-567a, (S)-3-Fluoro-5-methoxy-N-(2-(2-(trifluoromethyl)pyridin-4-yl)-5,6-dihydro-4H-pyrrolo[1,2-b]pyrazol-4-yl)benzamide]
CCOc1cc(F)cc(C(=O)N[C@H]2CCn3nc(-c4ccnc(C(F)(F)F)c4)cc32)c1 [Compound I-568a, (S)-3-Ethoxy-5-fluoro-N-(2-(2-(trifluoromethyl)pyridin-4-yl)-5,6-dihydro-4H-pyrrolo[1,2-b]pyrazol-4-yl)benzamide]
O=C(N[C@H]1CCn2nc(-c3ccnc(C(F)(F)F)c3)cc21)c1cc(F)cc(C2CC2)c1 [Compound I-569a, (S)-3-Cyclopropyl-5-fluoro-N-(2-(2-(trifluoromethyl)pyridin-4-yl)-5,6-dihydro-4H-pyrrolo[1,2-b]pyrazol-4-yl)benzamide]
CC(C)(O)c1cc(F)cc(C(=O)N[C@H]2CCn3nc(-c4ccnc(C(F)(F)F)c4)cc32)c1 [Compound I-570a, (S)-3-Fluoro-5-(2-hydroxypropan-2-yl)-N-(2-(2-(trifluoromethyl)pyridin-4-yl)-5,6-dihydro-4H-pyrrolo[1,2-b]pyrazol-4-yl)benzamide]
O=C(N[C@H]1CCn2nc(-c3ccnc(C(F)(F)F)c3)cc21)c1cnc(C(F)(F)F)cn1 [Compound I-571a, (S)-5-(Trifluoromethyl)-N-(2-(2-(trifluoromethyl)pyridin-4-yl)-5,6-dihydro-4H-pyrrolo[1,2-b]pyrazol-4-yl)pyrazine-2-carboxamide]
O=C(N[C@H]1CCn2nc(-c3ccnc(C(F)(F)F)c3)cc21)c1cnn(C(F)(F)F)c1 [Compound I-573a, (S)-1-(Trifluoromethyl)-N-(2-(2-(trifluoromethyl)pyridin-4-yl)-5,6-dihydro-4H-pyrrolo[1,2-b]pyrazol-4-yl)-1H-pyrazole-4-carboxamide]
CCOc1cc(F)cc(C(=O)N[C@H]2CCn3nc(-c4cc(OC)ncc4F)cc32)c1 [Compound I-574a, (S)-3-Ethoxy-5-fluoro-N-(2-(5-fluoro-2-methoxypyridin-4-yl)-5,6-dihydro-4H-pyrrolo[1,2-b]pyrazol-4-yl)benzamide]
COc1cc(-c2cc3n(n2)CC[C@@H]3NC(=O)c2cnc(C(F)(F)F)cn2)c(F)cn1 [Compound I-575a, (S)-N-(2-(5-Fluoro-2-methoxypyridin-4-yl)-5,6-dihydro-4H-pyrrolo[1,2-b]pyrazol-4-yl)-5-(trifluoromethyl)pyrazine-2-carboxamide]
COc1cc(-c2cc3n(n2)CC[C@@H]3NC(=O)c2cncc(C(F)(F)F)n2)c(F)cn1 [Compound I-576a, (S)-N-(2-(5-Fluoro-2-methoxypyridin-4-yl)-5,6-dihydro-4H-pyrrolo[1,2-b]pyrazol-4-yl)-6-(trifluoromethyl)pyrazine-2-carboxamide]
COc1cc(-c2cc3n(n2)CC[C@@H]3NC(=O)c2cnn(C(F)(F)F)c2)c(F)cn1 [Compound I-577a, (S)-N-(2-(5-Fluoro-2-methoxypyridin-4-yl)-5,6-dihydro-4H-pyrrolo[1,2-b]pyrazol-4-yl)-1-(trifluoromethyl)-1H-pyrazole-4-carboxamide]
COc1cc(F)cc(C(=O)N[C@H]2CCCn3nc(-c4ccnc(C(F)(F)F)c4)cc32)c1 [Compound I-578a, (S)-3-Fluoro-5-methoxy-N-(2-(2-(trifluoromethyl)pyridin-4-yl)-4,5,6,7-tetrahydropyrazolo[1,5-a]pyridin-4-yl)benzamide]
CCOc1cc(F)cc(C(=O)N[C@H]2CCCn3nc(-c4ccnc(C(F)(F)F)c4)cc32)c1 [Compound I-579a]
O=C(N[C@H]1CCCn2nc(-c3ccnc(C(F)(F)F)c3)cc21)c1cc(F)cc(C2CC2)c1 [Compound I-580a, (S)-3-Cyclopropyl-5-fluoro-N-(2-(2-(trifluoromethyl)pyridin-4-yl)-4,5,6,7-tetrahydropyrazolo[1,5-a]pyridin-4-yl)benzamide]
CC(C)(O)c1cc(F)cc(C(=O)N[C@H]2CCCn3nc(-c4ccnc(C(F)(F)F)c4)cc32)c1 [Compound I-581a]

— patent publication US20250313548A1 (Actio Biosciences, Inc., priority 2023, published 2025)
